Experimental findings from US8785486B2, “Imidazo[1,2-A]pyridine derivatives and their use as positive allosteric modulators of mGluR2 receptors” (Janssen Pharmaceuticals, Inc., priority 2007, dated 2014) are described below.

One data set deals with T1, human mGluR2 receptor (Homo sapiens, UniProt Q14416).
T1 construct: expressed in transfected cells; host or cells: CHO cells
Nature of the data set: [35S]GTPγS binding assay (PAM assay) using membranes from cells transfected with the human mGluR2 receptor. The class given is biochemical. To be noted: membranes of CHO cells with human mGluR2, glutamate at predetermined EC25 concentration, averages of duplicate values of 11-concentration response curves; for EC50: read-out: GTPγS - hR2 PAM pEC50 (converted). Here is the method: The [^35S]GTPγS binding assay is a functional membrane-based assay used to study G-protein coupled receptor (GPCR) function whereby incorporation of a non-hydrolysable form of GTP, [^35S]GTPγS (guanosine 5′-triphosphate, labelled with […] ^35S), is measured.
CHO-cells were cultured to pre-confluence and stimulated with 5 mM butyrate for 24 hours, prior to washing in PBS, and then collection by scraping in homogenisation buffer (50 mM Tris-HCl buffer, pH 7.4, 4° C.). Cell lysates were homogenized briefly (15 s) using an ultra-turrax homogenizer. The homogenate was centrifuged at 23 500×g for 10 minutes and the supernatant discarded. The pellet was resuspended in 5 mM Tris-HCl, pH 7.4 and centrifuged again (30 000×g, 20 min, 4° C.). The final pellet was resuspended in 50 mM HEPES, pH 7.4 and stored at −80° C. in appropriate aliquots before use. Protein concentration was determined by the Bradford method (Bio-Rad, USA) with bovine serum albumin as standard.
Measurement of mGluR2 positive allosteric modulatory activity of test compounds in membranes containing human mGluR2 was performed using frozen membranes that were thawed and briefly homogenised prior to pre-incubation in 96-well microplates (15 μg/assay well, 30 minutes, 30° C.) in assay buffer (50 mM HEPES pH 7.4, 100 mM NaCl, 3 mM MgCl2, 50 μM GDP, 10 μg/ml saponin,) with increasing concentrations of positive allosteric modulator (from 0.3 nM to 50 μM) and either a minimal pre-determined concentration of glutamate (PAM assay), or no added glutamate. […] After addition of [^35S]GTPγS (0.1 nM, f.c.) to achieve a total reaction volume of 200 μl, microplates were shaken briefly and further incubated to allow [^35S]GTPγS incorporation on activation (30 minutes, 30° C.). The reaction was stopped by rapid vacuum filtration over glass-fibre filter plates (Unifilter 96-well GF/B filter plates, Perkin-Elmer, Downers Grove, USA) microplate using a 96-well plate cell harvester (Filtermate, Perkin-Elmer, USA), and then by washing three times with 300 μl of ice-cold wash buffer (Na2PO4.2H2O 10 mM, NaH2PO4.H2O 10 mM, pH=7.4). Filters were then air-dried, and 40 μl of liquid scintillation cocktail (Microscint-O) was added to each well, and membrane-bound [^35S]GTPγS was measured in a 96-well scintillation plate reader (Top-Count, Perkin-Elmer, USA). Non-specific [^35S]GTPγS binding is determined in the presence of cold 10 μM GTP. Each curve was performed at least once using duplicate sample per data point and at 11 concentrations.
The concentration-response curves of representative compounds of the present invention in the presence of added EC25 of mGluR2 agonist glutamate to determine positive allosteric modulation (PAM), were generated using the Prism GraphPad software (Graph Pad Inc, San Diego, USA). The curves were fitted to a four-parameter logistic equation (Y=Bottom+(Top-Bottom)/(1+10^((Log EC50−X)*Hill Slope) allowing determination of EC50 values. The EC50 is the concentration of a compound that causes a half-maximal potentiation of the glutamate response. This is calculated by subtracting the maximal responses of glutamate in presence of a fully saturating concentration of a positive allosteric modulator from the response of glutamate in absence of a positive allosteric modulator. The concentration producing the half-maximal effect is then calculated as EC50
In general terms: Binding of GTPγS marks nucleotide exchange on a G protein.

T1 sequence (Q14416 19-872): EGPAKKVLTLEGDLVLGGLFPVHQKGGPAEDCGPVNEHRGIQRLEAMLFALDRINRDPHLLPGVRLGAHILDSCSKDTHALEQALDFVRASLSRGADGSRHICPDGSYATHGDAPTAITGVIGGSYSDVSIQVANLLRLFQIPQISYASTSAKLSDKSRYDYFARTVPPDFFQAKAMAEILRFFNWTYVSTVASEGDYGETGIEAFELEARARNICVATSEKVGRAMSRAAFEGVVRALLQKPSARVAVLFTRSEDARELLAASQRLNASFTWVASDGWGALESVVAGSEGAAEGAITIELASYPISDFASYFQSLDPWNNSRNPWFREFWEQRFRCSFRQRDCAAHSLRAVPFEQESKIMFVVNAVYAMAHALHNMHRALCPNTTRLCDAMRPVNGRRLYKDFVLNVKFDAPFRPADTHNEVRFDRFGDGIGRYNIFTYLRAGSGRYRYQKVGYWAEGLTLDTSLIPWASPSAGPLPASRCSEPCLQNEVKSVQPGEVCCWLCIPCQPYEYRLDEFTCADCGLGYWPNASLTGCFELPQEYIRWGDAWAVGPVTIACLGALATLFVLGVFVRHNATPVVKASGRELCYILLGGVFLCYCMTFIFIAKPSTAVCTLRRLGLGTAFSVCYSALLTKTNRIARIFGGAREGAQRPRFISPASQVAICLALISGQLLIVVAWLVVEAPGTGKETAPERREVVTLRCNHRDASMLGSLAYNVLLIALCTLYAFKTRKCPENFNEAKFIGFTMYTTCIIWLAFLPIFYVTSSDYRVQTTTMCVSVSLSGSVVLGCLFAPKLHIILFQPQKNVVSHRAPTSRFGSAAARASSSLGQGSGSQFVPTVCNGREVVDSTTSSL

The term melting point denotes the temperature of the solid-liquid transition. In the case of `N#Cc1c(N2CCN(c3ncccn3)CC2)ccn2c(CC(F)(F)F)cnc12` [Example 2, 7-(4-Pyrimidin-2-yl-piperazin-1-yl)-3-(2,2,2-trifluoro-ethyl)-imidazo[1,2-a]pyridine-8-carbonitrile], the melting point amounted to 239 °C. The “GTPγS - hR2 PAM pEC50” value at human mGluR2 receptor was 6.07.

`CCCc1cnc2c(C#N)c(N3CCC(c4cccc(C(F)(F)F)c4)CC3)ccn12` [Example 5] had a melting point of 126.8 to 131 °C. Further, the EC50 at human mGluR2 receptor was 107 nM.

For the molecule `CCCc1cnc2c(C#N)c(N3CCC(c4ccccc4)CC3)ccn12` [Example 6], the melting point is 161 °C. On human mGluR2 receptor, the “GTPγS - hR2 PAM pEC50” value was 6.81.

Consider `CCCc1cnc2c(C#N)c(N3CCC(O)(c4ccccc4)CC3)ccn12` [Example 8], for which the melting point was found to be 201.1 °C. Besides, the EC50 at human mGluR2 receptor is 316 nM.

Turning to `CCCc1cnc2c(C#N)c(-c3ccc(Oc4cccnc4C)cc3)ccn12` [Example 9], the melting point was determined as 159 °C. For the same molecule, the EC50 on human mGluR2 receptor was 316 nM.

Molecule `CCCc1cnc2c(C#N)c(-c3ccc(Oc4ccnc(C)c4)cc3)ccn12` [Example 11] returned a melting point of 181.8 °C. Moreover, on human mGluR2 receptor, the EC50 was 427 nM.

With `CCc1cnc2c(C#N)c(N3CCC(c4ccccc4)CC3)ccn12` [Example 12], the melting point was found to be 150 °C. Moreover, the “GTPγS - hR2 PAM pEC50” value on human mGluR2 receptor is recorded as 6.30.

The molecule `CCCc1cnc2c(C#N)c(N3CCN(c4nc(C)cc(C)n4)CC3)ccn12` [Example 14] had a melting point of 194.4 °C. In addition, the “GTPγS - hR2 PAM pEC50” value at human mGluR2 receptor stood at 6.19.

For the molecule `CCCc1cnc2c(C#N)c(N3CCN(c4ccccc4)CC3)ccn12` [Example 15], the melting point is 148.2 °C. Moreover, at human mGluR2 receptor, the “GTPγS - hR2 PAM pEC50” value came out at 6.01.

Molecule `CCc1cnc2c(C#N)c(N3CCC(O)(c4ccccc4)CC3)ccn12` [Example 16] returned a melting point of 265 °C. In addition, the EC50 on human mGluR2 receptor was 1000 nM.

`CCc1cnc2c(C#N)c(N3CCN(c4nc(C)cc(C)n4)CC3)ccn12` [Example 19] gave a melting point of 231.4 °C. Besides, the “GTPγS - hR2 PAM pEC50” value at human mGluR2 receptor is listed as 5.64.

`N#Cc1c(N2CCN(c3ccccc3)CC2)ccn2c(-c3ccccc3)cnc12` [Example 20] gave a melting point of 220 °C.

For the molecule `CCCc1cnc2c(C#N)c(N3CCN(c4ncccn4)CC3)ccn12` [Example 22], the melting point was 176.4 °C.

`CCc1cnc2c(C#N)c(-c3ccc(Oc4ccnc(C)c4)c(F)c3)ccn12` [Example 25] came in with a melting point of 197.6 °C.

Take `N#Cc1c(N2CCC(c3ccccc3)CC2)ccn2c(CCCC(F)(F)F)cnc12` [Example 28, 7-(4-Phenyl-piperidin-1-yl)-3-(4,4,4-trifluoro-butyl)-imidazo[1,2-a]pyridine-8-carbonitrile]: the melting point was found to be 128.5 °C. On human mGluR2 receptor, the EC50 is 132 nM.

With `N#Cc1c(N2CCC(O)(c3ccccc3)CC2)ccn2c(CC(F)(F)F)cnc12` [Example 30], the melting point stood at 272.1 °C. Moreover, on human mGluR2 receptor, the EC50 is 417 nM.

As to `N#Cc1c(N2CCC(c3ccccc3F)CC2)ccn2c(CC(F)(F)F)cnc12` [Example 31], the melting point stood at 139.3 °C. The EC50 at human mGluR2 receptor was 81.3 nM.

`N#Cc1c(N2CCC(c3cccc(C(F)(F)F)c3)CC2)ccn2c(CC(F)(F)F)cnc12` [Example 32] yielded a melting point greater than 300 °C. The EC50 at human mGluR2 receptor is 81.3 nM.

`N#Cc1c(N2CCC(c3ccc(F)cc3F)CC2)ccn2c(CC(F)(F)F)cnc12` [Example 33] displayed a melting point of 186.5 °C. On human mGluR2 receptor, the EC50 was 61.7 nM.

On to `Cc1cc(C)nc(N2CCN(c3ccn4c(CC(F)(F)F)cnc4c3C#N)CC2)n1` [Example 34], for which the melting point is greater than 300 °C. Besides, on human mGluR2 receptor, the “GTPγS - hR2 PAM pEC50” value was determined as 6.35.

In the case of `FC(F)(F)Cc1cnc2c(Cl)c(CN3CCC(F)(c4ccccc4)CC3)ccn12` [Example 35], the melting point is 154.8 °C. For the same molecule, on human mGluR2 receptor, the EC50 was 603 nM.

`FC(F)(F)Cc1cnc2c(Cl)c(CN3CCN(c4ncccn4)CC3)ccn12` [Example 36, 8-Chloro-7-(4-pyrimidin-2-yl-piperazin-1-ylmethyl)-3-(2,2,2-trifluoro-ethyl)imidazo[1,2-a]pyridine] registered a melting point of 161.4 °C.

For `Fc1ccc(N2CCN(Cc3ccn4c(CC(F)(F)F)cnc4c3Cl)CC2)c(F)c1` [Example 37], the melting point amounted to 156.9 °C. The EC50 on human mGluR2 receptor is 3020 nM.

On to `N#Cc1c(CN2CCC(O)(c3ccc(F)cc3)CC2)ccn2c(CC(F)(F)F)cnc12` [Example 38], for which the melting point came to 181.2 °C.

As for `N#Cc1c(CN2CCC(F)(c3ccccc3)CC2)ccn2c(CC(F)(F)F)cnc12` [Example 40], the melting point was found to be 145 °C. Moreover, the EC50 on human mGluR2 receptor was 1290 nM.

Molecule `Fc1ccccc1C1CCN(Cc2ccn3c(CC(F)(F)F)cnc3c2Cl)CC1` [Example 41] came in with a melting point of 161.1 °C. The EC50 at human mGluR2 receptor is 437 nM.

In the case of `COc1cccc(C2(O)CCN(Cc3ccn4c(CC(F)(F)F)cnc4c3C#N)CC2)c1` [Example 43], the melting point came out at 196 °C.

Take `N#Cc1c(CN2CCC(c3ccccc3F)CC2)ccn2c(CC(F)(F)F)cnc12` [Example 44]: the melting point is 152 °C. Also, the EC50 at human mGluR2 receptor is 324 nM.

On to `Fc1ccccc1N1CCN(Cc2ccn3c(CC(F)(F)F)cnc3c2Cl)CC1` [Example 46], for which the melting point was 150.2 °C. On human mGluR2 receptor, the EC50 was 1740 nM.

On to `N#Cc1c(N2CCC(c3ccccc3)CC2)ccn2c(-c3ccc(F)cc3F)cnc12` [Example 47], for which the melting point was 267 °C. The EC50 on human mGluR2 receptor is 229 nM.

Molecule `N#Cc1c(N2CCC(c3ccccc3)CC2)ccn2c(CCC3CC3)cnc12` [Example 48] had a melting point of 145.4 °C. Moreover, on human mGluR2 receptor, the EC50 was 93.3 nM.

Molecule `FC(F)(F)Cc1cnc2c(Cl)c(N3CCC(F)(c4ccccc4)CC3)ccn12` [Example 50, 8-Chloro-7-(4-fluoro-4-phenyl-piperidin-1-yl)-3-(2,2,2-trifluoro-ethyl)-imidazo[1,2-a]pyridine] displayed a melting point of 220.7 °C. The EC50 at human mGluR2 receptor was 195 nM.

`FC(F)(F)Cc1cnc2c(Cl)c(N3CCC(c4ccccc4)CC3)ccn12` [Example 51, 8-Chloro-7-(4-phenyl-piperidin-1-yl)-3-(2,2,2-trifluoro-ethyl)-imidazo[1,2-a]pyridine] had a melting point of 263.1 °C. At human mGluR2 receptor, the EC50 was 158 nM.

As for `N#Cc1c(N2CCC(c3ccccc3CCF)CC2)ccn2c(CC(F)(F)F)cnc12` [Example 118], at human mGluR2 receptor, the EC50 is 63.1 nM.

For the molecule `N#Cc1c(N2CCC(c3cccc(F)c3OCCF)CC2)ccn2c(CC(F)(F)F)cnc12` [Example 119], on human mGluR2 receptor, the EC50 is 57.5 nM.

In the case of `N#Cc1c(-c2ccc(OCc3ccccc3)cc2)ccn2c(CC(F)(F)F)cnc12` [Example 120], the “GTPγS - hR2 PAM pEC50” value on human mGluR2 receptor was determined as 6.80.

`N#Cc1c(N2CCC(c3ccccc3)(N3CCOCC3)CC2)ccn2c(CC(F)(F)F)cnc12` [Example 121]: on human mGluR2 receptor, the EC50 was 2090 nM.

Consider `N#Cc1c(N2CCC([C@H]3CC[C@H](O)CC3)CC2)ccn2c(CC(F)(F)F)cnc12` [Example 122], for which the EC50 on human mGluR2 receptor is 550 nM.

Consider `FC(F)(F)Cc1cnc2c(Cl)c(CN3CCC4(CC3)OCc3ccccc34)ccn12` [Example 123], for which the melting point stood at 164.2 °C.

`FC(F)(F)Cc1cnc2c(Cl)c(CN3CCC4(CC3)COc3ccccc3O4)ccn12` [Example 124]: the EC50 on human mGluR2 receptor was 794 nM.

Regarding `FC(F)(F)Cc1cnc2c(Cl)c(N3CCC4(CC3)CN(c3ccccc3)C4)ccn12` [Example 125], the EC50 on human mGluR2 receptor was 1780 nM.
